Laboratory results from patent US20100249145A1, “Inhibitors of VEGF Receptor and HGF Receptor Signaling” (Methylgene, Inc., priority 2005, published 2010).

Assays:
A431 cells = assay: In vivo solid tumor disease model, A431 xenograft; design: species or system female athymic CD 1 mice; conditions: 30 mg/kg once daily IP, vehicle DMSO, 14 days
Description: (§1) In Vivo Solid Tumor Disease Model
(§2) This test measures the capacity of compounds to inhibit solid tumor growth.
(§3) Tumor xenografts were established in the flank of female athymic CD 1 mice (Charles River Inc.), by subcutaneous injection of 1×10^6U87, A431 or SKLMS cells/mouse. Once established, tumors were then serially passaged s.c. in nude mice hosts. Tumor fragments from these host animals were used in subsequent compound evaluation experiments. For compound evaluation experiments female nude mice weighing approximately 20 g were implanted s.c. by surgical implantation with tumor fragments of ˜30 mg from donor tumors. When the tumors were approximately 100 mm^3 in size (˜7-10 days following implantation), the animals were randomized a separated into treatment and control groups. Each group contained 6-8 tumor-bearing mice, each of which was ear-tagged and followed individually throughout the experiment
(§4) Mice were weighed and tumor measurements are taken by calipers three times weekly, starting on Day 1. These tumor measurements were converted to tumor volume by the well-known formula (L+W/4)^34/3π. The experiment was terminated when the control tumors reached a size of approximately 1500 mm^3. In this model, the change in mean tumor volume for a compound treated group/the change in mean tumor volume of the control group (non-treated or vehicle treated)×100 (ΔT/ΔC) was subtracted from 100 to give the percent tumor growth inhibition (% TGI) for each test compound. In addition to tumor volumes, body weight of animals were monitored twice weekly for up to 3 weeks.
(§5) Regiment of administration was once daily.

A549 = assay: In vivo solid tumor disease model, A549 xenograft; design: species or system female athymic CD 1 mice
HCT116 = assay: In vivo solid tumor disease model, HCT116 xenograft; design: species or system female athymic CD 1 mice; conditions: 14 days
TPR-MET fusion protein = TPR-MET fusion protein (Homo sapiens, UniProt P08581); assay: C-Met phosphorylation cell-based assay (MNNGHOS cells, immunoblot); conditions: Table 30, 3 hours treatment, read-out: C-Met cell-based Y1230-34-35 tpr-met inhibition (IC50)
Description: C-Met Phosphorylation Cell-Based Assay

[1] = target: T1, recombinant human c-Met/HGF receptor (Homo sapiens, UniProt P08581); assay: In vitro receptor tyrosine kinase assay (DELFIA), c-Met/HGF receptor; type: biochemical; conditions: Table 30; ATP 10 uM, enzyme 25 nM; read-out: C-Met (enz.) (IC50)
T1 construct: His tag (histidine tag from pBlueBacHis2A); made in house; host or cells: Hi-5 cells (Trichoplusia ni), recombinant baculovirus

VEGF receptor KDR = target: T2, VEGF receptor KDR (Homo sapiens, UniProt P35968); assay: In vitro receptor tyrosine kinase assay (DELFIA), VEGF receptor KDR; type: biochemical; conditions: Table 30; ATP 0.6 uM, enzyme 5 nM; read-out: VEGF(enz.) (IC50)
T2 construct: made in house; host or cells: Sf9 cells (Spodoptera frugiperda), recombinant baculovirus

U87 cells = assay: In vivo solid tumor disease model, U87 xenograft; design: species or system female athymic CD 1 mice; conditions: U87MG
Description: as §1, §2, §3, §4, §5

SKLMS cells = assay: In vivo solid tumor disease model, SKLMS xenograft; design: species or system female athymic CD 1 mice; conditions: SKLMS40
Description: as §1, §2, §3, §4, §5

DU145 = assay: In vivo solid tumor disease model, DU145 xenograft; design: species or system female athymic CD 1 mice; conditions: 10 days
[2] = 30 mg/kg once daily IP, vehicle DMSO, 14 days
[3] = 75 mg/kg once daily PO, vehicle 5% DMSO - 1% Tween-80 in water, 14 days
[4] = 30 mg/kg once daily IP, vehicle DMSO, 10 days
[5] = 75 mg/kg once daily PO, vehicle 5% DMSO - 1% Tween-80 in water, 10 days
[6] = 15 mg/kg once daily IP, vehicle DMSO, 10 days

Sequence of TPR-MET fusion protein (P08581 with tags, fused parts or gaps): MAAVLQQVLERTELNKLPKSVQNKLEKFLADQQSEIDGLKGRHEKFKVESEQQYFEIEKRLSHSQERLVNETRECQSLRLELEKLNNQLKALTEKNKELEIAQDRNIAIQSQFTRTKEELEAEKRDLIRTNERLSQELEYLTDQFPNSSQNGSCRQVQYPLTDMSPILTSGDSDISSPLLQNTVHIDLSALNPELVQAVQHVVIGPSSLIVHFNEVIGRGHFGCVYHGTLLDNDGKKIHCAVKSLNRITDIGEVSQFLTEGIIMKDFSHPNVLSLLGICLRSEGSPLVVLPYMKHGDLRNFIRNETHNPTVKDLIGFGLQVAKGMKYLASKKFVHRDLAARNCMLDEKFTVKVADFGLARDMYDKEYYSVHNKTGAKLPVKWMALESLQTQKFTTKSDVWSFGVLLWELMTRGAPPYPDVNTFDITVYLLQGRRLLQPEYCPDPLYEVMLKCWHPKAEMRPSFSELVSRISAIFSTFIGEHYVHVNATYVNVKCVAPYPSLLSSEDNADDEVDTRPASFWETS
T2 sequence (P35968 806-1356): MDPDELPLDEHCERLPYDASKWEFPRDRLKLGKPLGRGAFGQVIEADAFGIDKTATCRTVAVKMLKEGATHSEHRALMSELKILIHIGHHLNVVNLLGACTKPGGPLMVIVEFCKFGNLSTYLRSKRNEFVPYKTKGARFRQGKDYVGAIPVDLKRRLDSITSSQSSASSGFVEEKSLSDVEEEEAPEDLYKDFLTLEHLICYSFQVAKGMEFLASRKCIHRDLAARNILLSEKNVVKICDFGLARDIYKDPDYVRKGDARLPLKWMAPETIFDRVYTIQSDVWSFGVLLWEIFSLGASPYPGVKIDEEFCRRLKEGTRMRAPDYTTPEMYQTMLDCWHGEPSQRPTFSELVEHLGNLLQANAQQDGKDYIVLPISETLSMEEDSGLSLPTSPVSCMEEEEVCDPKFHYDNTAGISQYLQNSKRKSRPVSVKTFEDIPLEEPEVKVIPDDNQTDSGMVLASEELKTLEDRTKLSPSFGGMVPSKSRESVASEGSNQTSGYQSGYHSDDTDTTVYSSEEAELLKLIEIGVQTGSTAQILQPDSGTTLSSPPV
T1 sequence (P08581 1078-1337): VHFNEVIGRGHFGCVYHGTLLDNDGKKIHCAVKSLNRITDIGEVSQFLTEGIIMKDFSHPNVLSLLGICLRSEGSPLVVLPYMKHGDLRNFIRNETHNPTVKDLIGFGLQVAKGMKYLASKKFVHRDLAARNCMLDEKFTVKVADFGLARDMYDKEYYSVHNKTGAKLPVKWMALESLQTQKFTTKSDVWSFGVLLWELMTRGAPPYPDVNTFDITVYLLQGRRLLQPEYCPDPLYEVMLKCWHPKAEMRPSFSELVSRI

## Cl.O=C(Cc1c(F)cccc1F)NC(=S)Nc1ccc(Oc2ccnc3cc(C(=O)N4CCCC4)sc23)c(F)c1 [Example 157, 2-(2,6-Difluorophenyl)-N-(3-fluoro-4-(2-(pyrrolidine-1-carbonyl)thieno[3,2-b]pyridin-7-yloxy)phenylcarbamothioyl)acetamide hydrochloride]
A431 cells
  Tumor Growth Inhibition (%): c (% TGI in the range of 25-49)
A549; [2]
  Tumor Growth Inhibition (%): c (% TGI in the range of 25-49)

## O=C(Cc1ccccc1)NC(=S)Nc1ccc(Oc2ccnc3cc(-c4nccs4)sc23)c(F)c1 [Example 12, 1-(4-(2-(Thiazol-2-yl)thieno[3,2-b]pyridin-7-yloxy)-3-fluorophenyl)-3-(2-phenylacetyl)thiourea]
HCT116; HST116, 30 mg/kg once daily IP, vehicle DMSO
  Tumor Growth Inhibition (%): c (% TGI in the range of 25-49)
TPR-MET fusion protein
  IC50: < 50 nM
[1]
  IC50: 50 to 250 nM
VEGF receptor KDR
  IC50: < 50 nM
U87 cells; [2]
  Tumor Growth Inhibition (%): b (% TGI in the range of 50-74)

## Cn1cc(-c2cc3nccc(Oc4ccc(NC(=S)NC(=O)Cc5ccccc5)cc4F)c3s2)cn1 [Example 81, N-(3-Fluoro-4-(2-(1-methyl-1H-pyrazol-4-yl)thieno[3,2-b]pyridin-7-yloxy)phenylcarbamothioyl)-2-phenylacetamide]
SKLMS cells; [3]
  Tumor Growth Inhibition (%): c (% TGI in the range of 25-49)

## CC(C)(C)OC(=O)NC1CCN(C(=O)c2cc3ncnc(Oc4ccc(NC(=S)NC(=O)Cc5ccccc5)cc4F)c3s2)C1 (centres unmarked) [Example 148, tert-Butyl 1-(4-(2-fluoro-4-(3-(2-phenylacetyl)thioureido)phenoxy)thieno[3,2-d]pyrimidine-6-carbonyl)pyrrolidin-3-ylcarbamate]
DU145; 30 mg/kg once daily IP, vehicle DMSO
  Tumor Growth Inhibition (%): c (% TGI in the range of 25-49)
U87 cells; 30 mg/kg once daily IP, vehicle 50/50 DMSO:40/60 PEG/0.2 N HCl in saline, 10 days
  Tumor Growth Inhibition (%): c (% TGI in the range of 25-49)

## CCn1cnc(-c2cc3nccc(Oc4ccc(NC(=S)NC(=O)Cc5ccccc5)cc4F)c3s2)c1 [Example 77, N-(4-(2-(1-Ethyl-1H-imidazol-4-yl)thieno[3,2-b]pyridin-7-yloxy)-3-fluorophenylcarbamothioyl)-2-phenylacetamide]
A549; [4]
  Tumor Growth Inhibition (%): b (% TGI in the range of 50-74)
A549; [5]
  Tumor Growth Inhibition (%): b (% TGI in the range of 50-74)
U87 cells; [3]
  Tumor Growth Inhibition (%): b (% TGI in the range of 50-74)
SKLMS cells; 75 mg/kg once daily PO, vehicle 5% DMSO - 1% Tween-80 in water, 6 days
  Tumor Growth Inhibition (%): d (% TGI in the range of 0-24)

## CCn1cnc(-c2cc3nccc(Oc4ccc(NC(=S)NC(=O)Cc5ccccc5F)cc4F)c3s2)c1 [Example 242, 1-{4-[2-(1-Ethyl-1H-imidazol-4-yl)-thieno[3,2-b]pyridin-7-yloxy]-3-fluoro-phenyl}-3-[2-(2-fluoro-phenyl)-acetyl]-thiourea]
HCT116; HCT116, 75 mg/kg once daily PO, vehicle 5% DMSO - 1% Tween-80 in water
  Tumor Growth Inhibition (%): b (% TGI in the range of 50-74)
U87 cells; [3]
  Tumor Growth Inhibition (%): a (% TGI in the range of 75-100)

## Cn1cnnc1-c1cc2nccc(Oc3ccc(NC(=S)NC(=O)Cc4ccccc4)cc3F)c2s1 [Example 75, N-(3-Fluoro-4-(2-(4-methyl-4H-1,2,4-triazol-3-yl)thieno[3,2-b]pyridin-7-yloxy)phenylcarbamothioyl)-2-phenylacetamide]
DU145; 15 mg/kg once daily IP, vehicle DMSO
  Tumor Growth Inhibition (%): c (% TGI in the range of 25-49)
VEGF receptor KDR
  IC50: < 50 nM
A549; 75 mg/kg once daily PO, vehicle 5% DMSO - 1% Tween-80 in water, 12 days
  Tumor Growth Inhibition (%): b (% TGI in the range of 50-74)
U87 cells; [6]
  Tumor Growth Inhibition (%): d (% TGI in the range of 0-24)
U87 cells; [4]
  Tumor Growth Inhibition (%): c (% TGI in the range of 25-49)
U87 cells; [2]
  Tumor Growth Inhibition (%): c (% TGI in the range of 25-49)
U87 cells; 100 mg/kg once daily PO, vehicle 5% DMSO - 1% Tween-80 in water, 14 days
  Tumor Growth Inhibition (%): b (% TGI in the range of 50-74)
SKLMS cells; [6]
  Tumor Growth Inhibition (%): b (% TGI in the range of 50-74)

## CN(C)C(=O)c1cc2ncnc(Oc3ccc(NC(=S)NC(=O)Cc4ccccc4)cc3F)c2s1 [Example 23, 1-(4-(6-(Dimethylcarbamoyl)thieno[3,2-d]pyrimidin-4-yloxy)-3-fluorophenyl)-3-(2-phenylacetyl)thiourea]
TPR-MET fusion protein
  IC50: 50 to 250 nM
[1]
  IC50: 50 to 250 nM
VEGF receptor KDR
  IC50: < 50 nM

## 1-(4-(2- (morpholinylcarbamoyl) thieno[3,2- b]pyridin-7-yloxy)-3- fluorophenyl)-3-(2- phenylacetyl)thiourea [Example 3]
TPR-MET fusion protein
  IC50: 50 to 250 nM
[1]
  IC50: 50 to 250 nM
VEGF receptor KDR
  IC50: 250 to 500 nM

## CCn1cnc(-c2cc3nccc(Oc4ccc(NC(=S)NC(=O)Cc5ccccc5OC)cc4F)c3s2)c1 [Example 243, 1-{4-[2-(1-Ethyl-1H-imidazol-4-yl)-thieno[3,2-b]pyridin-7-yloxy]-3-fluoro-phenyl}-3-[2-(2-methoxy-phenyl)-acetyl]-thiourea]
U87 cells; [3]
  Tumor Growth Inhibition (%): b (% TGI in the range of 50-74)
SKLMS cells; 75 mg/kg once daily PO, vehicle 5% DMSO - 1% Tween-80 in water, 11 days
  Tumor Growth Inhibition (%): b (% TGI in the range of 50-74)

## COC(=O)C(C)N(C(=S)NC(=O)Cc1ccccc1)c1ccc(Oc2ccnc3cc(C(N)=O)sc23)c(F)c1 (centres unmarked) [Example 11, Methyl 2-(1-(4-(2-(carbamoyl)thieno [3,2-b]pyridin-7-yloxy)-3-fluorophenyl)-3-(2-phenylacetyl)thioureido) propanoate]
TPR-MET fusion protein
  IC50: 50 to 250 nM
[1]
  IC50: 50 to 250 nM
VEGF receptor KDR
  IC50: > 500 nM

## CON(C)C(=O)c1cc2nccc(Oc3ccc(NC(=S)NC(=O)Cc4ccccc4)cc3F)c2s1 [Example 10, 1-(4-(2-(N-methoxy-N-methylcarbamoyl)thieno[3,2-b]pyridin-7-yloxy)-3-fluorophenyl)-3-(2-phenylacetyl)thiourea]
TPR-MET fusion protein
  IC50: 50 to 250 nM
[1]
  IC50: 50 to 250 nM
VEGF receptor KDR
  IC50: 50 to 250 nM

## O=C(Cc1ccccc1)NC(=S)Nc1ccc(Oc2ccnc3cc(C(=O)NCCN4CCOCC4)sc23)c(F)c1 [Example 2, l-(4-(2-(2-morpholinoethylcarbamoyl)thieno[3,2-b]pyridin-7-yloxy)-3-fluorophenyl)-3-(2-phenylacetyl)thiourea]
TPR-MET fusion protein
  IC50: 50 to 250 nM
[1]
  IC50: 50 to 250 nM
VEGF receptor KDR
  IC50: < 50 nM

## Cn1cnc(-c2cc3nccc(Oc4ccc(NC(=S)NC(=O)Cc5ccccc5)cc4F)c3s2)c1 [Example 76, N-(3-Fluoro-4-(2-(1-methyl-1H-imidazol-4-yl)thieno[3,2-b]pyridin-7-yloxy)phenylcarbamothioyl)-2-phenylacetamide]
DU145; 75 mg/kg once daily PO, vehicle 5% DMSO - 1% Tween-80 in water
  Tumor Growth Inhibition (%): c (% TGI in the range of 25-49)
A549; [2]
  Tumor Growth Inhibition (%): b (% TGI in the range of 50-74)
A549; [5]
  Tumor Growth Inhibition (%): b (% TGI in the range of 50-74)
A549; [3]
  Tumor Growth Inhibition (%): c (% TGI in the range of 25-49)

## O=C(Cc1ccccc1)NC(=S)Nc1ccc(Oc2ccnc3cc(C(=O)N4CC[C@@H](O)C4)sc23)c(F)c1 [Example 38, (R)-N-(3-Fluoro-4-(2-(3-hydroxypyrrolidine-1-carbonyl)thieno[3,2-b]pyridin-7-yloxy)phenylcarbamothioyl)-2-phenylacetamide]
A431 cells
  Tumor Growth Inhibition (%): c (% TGI in the range of 25-49)
A549; [2]
  Tumor Growth Inhibition (%): c (% TGI in the range of 25-49)

## O=C(Cc1ccccc1)NC(=S)Nc1ccc(Oc2ccnc3cc[nH]c23)c(F)c1 [Example 221, N-(4-(1H-Pyrrolo[3,2-b]pyridin-7-yloxy)-3-fluorophenylcarbamothioyl)-2-phenyl acetamide]
TPR-MET fusion protein
  IC50: > 500 nM
[1]
  IC50: < 50 nM
VEGF receptor KDR
  IC50: > 500 nM
